Assay results: publication PMC12040169 (PLOS Biology, 2025)

experiment: in vitro; details: human, hela cells, % viability

With `CCOc1cc(OCC)cc(C(=O)N2CCC3(CC2)NC(=O)c2ccc(C)cc2O3)c1` [CBK166215] as the compound, how does the viability at 28.5 h, 10 µM read?
Its viability at 28.5 h, 10 µM is 117%.

For `COc1cc(C(=O)N2CCC3(CC2)NC(=O)c2cc(C)ccc2O3)cc(OC)c1C` [CBK166273], which viability at 28.5 h, 10 µM is on record?
The viability at 28.5 h, 10 µM was 91%.

Which viability at 28.5 h, 10 µM does the source give for `COc1cc(C(=O)N2CCC3(CC2)NC(=O)c2cc(C)ccc2O3)ccc1C` [CBK166276] here?
The viability at 28.5 h, 10 µM was 108%.

For `COc1ccc(C(=O)N2CCC3(CC2)NC(=O)c2cc(C)ccc2O3)cc1C` [CBK166277], which viability at 28.5 h, 10 µM is on record?
Its viability at 28.5 h, 10 µM is 89%.

Which viability at 28.5 h, 10 µM does the source give for `CCOc1cc(OCC)cc(C(=O)N2CCC3(CC2)NC(=O)c2cc(I)ccc2O3)c1` [CBK166301] here?
The viability at 28.5 h, 10 µM was 94.1%.

Which viability at 28.5 h, 10 µM does the source give for `COc1cc(OC)cc(C(=O)N2CCC3(CC2)NC(=O)c2ccc(OC)cc2O3)c1` [CBK166328] here?
The viability at 28.5 h, 10 µM was 106%.

Which viability at 28.5 h, 10 µM does the source give for `COc1ccc(C)cc1NC(=O)N1CCC2(CC1)CC(=O)c1ccc(C)cc1O2` [CBK166520] here?
The viability at 28.5 h, 10 µM was 91.4%.

With `Cc1nc2c(C(=O)NCCOCCO)cnn2c(C)c1Cc1ccc(F)c(Cl)c1` [CBK167457] as the compound, how does the viability at 28.5 h, 10 µM read?
Its viability at 28.5 h, 10 µM is 96.3%.

With `O=C(Cn1cc(-c2ccc(CN3CCCCC3)cc2)nn1)NCc1ccc(OC(F)F)cc1` [CBK167514] as the compound, how does the viability at 28.5 h, 10 µM read?
The viability at 28.5 h, 10 µM was 96%.

Which viability at 28.5 h, 10 µM does the source give for `CC1CCN(Cc2ccc(-c3cn(CC(=O)NCc4ccc(OC(F)(F)F)c(F)c4)nn3)cc2)CC1` [CBK167536] here?
The viability at 28.5 h, 10 µM was 87.3%.

With `O=C(Cn1cc(-c2ccc(CN3CCCCC3)cc2)nn1)NCc1ccc(C2CCC2)cc1` [CBK167547] as the compound, how does the viability at 28.5 h, 10 µM read?
Its viability at 28.5 h, 10 µM is 86.6%.

For `CCc1ccc(CNC(=O)Cn2cc(-c3ccc(CN4CCC(CO)CC4)cc3)nn2)cc1` [CBK167551], which viability at 28.5 h, 10 µM is on record?
Its viability at 28.5 h, 10 µM is 105%.

Which viability at 28.5 h, 10 µM does the source give for `O=C(Cn1cc(-c2ccc(CN3CCCCC3)cc2)nn1)NCc1ccc(Cl)cc1Cl` [CBK167689] here?
Its viability at 28.5 h, 10 µM is 83.2%.

With `Cc1c(S(=O)(=O)Nc2cccc(C(=O)OCC3CCCN(C)C3)c2)sc2ccc(Cl)cc12` (centres unmarked) [CBK167735G] as the compound, how does the viability at 28.5 h, 10 µM read?
Its viability at 28.5 h, 10 µM is 109%.

For `COc1cc(C(=O)N2CCC3(CC2)CC(=O)c2cc(C)ccc2O3)cc(OC)c1C` [CBK167805], which viability at 28.5 h, 10 µM is on record?
Its viability at 28.5 h, 10 µM is 99.6%.

Which viability at 28.5 h, 10 µM does the source give for `CC(C)(C)OC(=O)N1CCC(COc2ccc(-c3ccc(S(C)(=O)=O)cc3)nc2)CC1` [CBK167839] here?
Its viability at 28.5 h, 10 µM is 108%.

With `Cc1ccc2c(c1)OC1(CCN(C(=O)c3c(-c4ccccc4)nc4ccccn34)CC1)CC2=O` [CBK167871] as the compound, how does the viability at 28.5 h, 10 µM read?
The viability at 28.5 h, 10 µM was 92.9%.

Which viability at 28.5 h, 10 µM does the source give for `CCOc1cc(OCC)cc(C(=O)N2CCC3(CC2)CC(=O)c2c(OC)cccc2O3)c1` [CBK168012] here?
Its viability at 28.5 h, 10 µM is 108%.

With `CCOc1cc(OCC)cc(C(=O)N2CCC3(CC2)CC(=O)c2ccc(OCC)cc2O3)c1` [CBK168014] as the compound, how does the viability at 28.5 h, 10 µM read?
The viability at 28.5 h, 10 µM was 98.8%.

Which viability at 28.5 h, 10 µM does the source give for `CCOc1cc(OCC)cc(C(=O)N2CCCC3(CC(=O)c4ccc(C)cc4O3)C2)c1` (centres unmarked) [CBK168067] here?
Its viability at 28.5 h, 10 µM is 93.9%.

With `COc1cc(OC)cc(C(=O)N2CCC3(CC2)CC(=O)c2cc(F)cc(F)c2O3)c1` [CBK168089] as the compound, how does the viability at 28.5 h, 10 µM read?
The viability at 28.5 h, 10 µM was 108%.

Which viability at 28.5 h, 10 µM does the source give for `CCOc1cc(OCC)cc(C(=O)N2CCCC3(CC2)CC(=O)c2ccc(C)cc2O3)c1` (centres unmarked) [CBK168241] here?
The viability at 28.5 h, 10 µM was 98.2%.

With `O=C(NC1CCNCC1)c1cc2ccccc2[nH]1` [CBK168609] as the compound, how does the viability at 28.5 h, 10 µM read?
The viability at 28.5 h, 10 µM was 84.6%.

Which viability at 28.5 h, 10 µM does the source give for `CON=Cc1c[nH]c2ccccc12` [CBK168628] here?
The viability at 28.5 h, 10 µM was 93.7%.

For `C(=N/OCc1ccccc1)/c1c[nH]c2ccccc12` [CBK168629], which viability at 28.5 h, 10 µM is on record?
Its viability at 28.5 h, 10 µM is 79.3%.

With `CN1CCC(NC(=O)c2cc3ccccc3[nH]2)CC1` [CBK168633] as the compound, how does the viability at 28.5 h, 10 µM read?
Its viability at 28.5 h, 10 µM is 88.3%.

With `CC12CCCN1CCCN2C(=O)c1c[nH]c2ccccc12` (centres unmarked) [CBK169228] as the compound, how does the viability at 28.5 h, 10 µM read?
The viability at 28.5 h, 10 µM was 87.2%.

With `CC(C)(C)COC(=O)N1CCC(N2CCOc3ccc(-c4ccc(S(C)(=O)=O)cc4)cc3C2)CC1` [CBK169264] as the compound, how does the viability at 28.5 h, 10 µM read?
The viability at 28.5 h, 10 µM was 83%.

For `CS(=O)(=O)c1ccc(-c2ccc3c(n2)CCN(C2CCN(C(=O)OCc4ccccc4)CC2)C3)cc1` [CBK169530], which viability at 28.5 h, 10 µM is on record?
Its viability at 28.5 h, 10 µM is 81.8%.

For `COc1cc(C(=O)N2CCC3(CC2)CC(=O)c2cc(-c4cccnc4)ccc2O3)cc(OC)c1C` [CBK169606], which viability at 28.5 h, 10 µM is on record?
Its viability at 28.5 h, 10 µM is 112%.

With `CN(C)C1CCN(C(=O)c2ccc(-c3cnc(OCC4CCN(C(=O)OC(C)(C)C)CC4)nc3)cc2)C1` (centres unmarked) [CBK169767] as the compound, how does the viability at 28.5 h, 10 µM read?
Its viability at 28.5 h, 10 µM is 113%.

With `CN1CCN(C(=O)c2ccc(-c3cnc(OCC4CCN(C(=O)OC(C)(C)C)CC4)nc3)cn2)CC1` [CBK170021] as the compound, how does the viability at 28.5 h, 10 µM read?
Its viability at 28.5 h, 10 µM is 93.5%.
